# Experimental data: PMC4358770 (Journal of medicinal chemistry, 2010)
# Biological target: T1, human NPP1 (Homo sapiens, UniProt P22413)
# T1 sequence (P22413 1-925): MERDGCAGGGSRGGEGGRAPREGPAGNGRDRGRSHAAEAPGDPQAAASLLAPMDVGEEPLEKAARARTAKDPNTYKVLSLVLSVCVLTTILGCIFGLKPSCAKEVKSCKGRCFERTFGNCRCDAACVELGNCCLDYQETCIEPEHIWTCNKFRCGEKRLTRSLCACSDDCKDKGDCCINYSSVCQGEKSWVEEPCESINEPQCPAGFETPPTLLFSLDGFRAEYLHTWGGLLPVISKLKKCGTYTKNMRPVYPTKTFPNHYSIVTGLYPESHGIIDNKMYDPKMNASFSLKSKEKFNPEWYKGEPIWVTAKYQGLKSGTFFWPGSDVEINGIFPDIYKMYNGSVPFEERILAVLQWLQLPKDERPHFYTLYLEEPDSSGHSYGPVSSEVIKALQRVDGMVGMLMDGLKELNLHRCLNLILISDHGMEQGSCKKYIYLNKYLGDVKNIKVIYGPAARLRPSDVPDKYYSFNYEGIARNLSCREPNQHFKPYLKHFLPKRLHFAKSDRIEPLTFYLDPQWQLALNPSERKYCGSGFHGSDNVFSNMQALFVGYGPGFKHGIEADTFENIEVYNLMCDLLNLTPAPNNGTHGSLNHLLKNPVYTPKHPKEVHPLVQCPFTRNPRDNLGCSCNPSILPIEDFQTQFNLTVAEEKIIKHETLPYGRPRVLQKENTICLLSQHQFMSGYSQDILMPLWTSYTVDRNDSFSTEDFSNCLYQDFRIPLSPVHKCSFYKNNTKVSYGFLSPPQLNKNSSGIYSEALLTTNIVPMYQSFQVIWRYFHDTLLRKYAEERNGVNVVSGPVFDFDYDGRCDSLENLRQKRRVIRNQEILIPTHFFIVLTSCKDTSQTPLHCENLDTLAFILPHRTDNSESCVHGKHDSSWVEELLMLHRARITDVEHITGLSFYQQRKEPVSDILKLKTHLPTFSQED
# Test: NPP1 hydrolysis assay
# Format: in vitro ADME
# Details: 100 μM ATP (100% reference)
smiles,measurement,value
Nc1ncnc2c1ncn2[C@@H]1O[C@H](COP(=O)(O)OP(=O)(O)OP(=O)(O)O)[C@@H](O)[C@H]1O [ATP],hydrolysis rate by NPP1,619 nmol nucl·min^−1·mg protein^−1
